The values below come from ChEMBL document CHEMBL1151010, “A case study of combinatorial libraries: Endothelin receptor antagonist hexapeptides” (Bioorg Med Chem Lett, 1995).

Experiment [1] concerns the target T1, Endothelin-1 receptor (Sus scrofa) (UniProt Q29010).
T1 sequence (whole entry): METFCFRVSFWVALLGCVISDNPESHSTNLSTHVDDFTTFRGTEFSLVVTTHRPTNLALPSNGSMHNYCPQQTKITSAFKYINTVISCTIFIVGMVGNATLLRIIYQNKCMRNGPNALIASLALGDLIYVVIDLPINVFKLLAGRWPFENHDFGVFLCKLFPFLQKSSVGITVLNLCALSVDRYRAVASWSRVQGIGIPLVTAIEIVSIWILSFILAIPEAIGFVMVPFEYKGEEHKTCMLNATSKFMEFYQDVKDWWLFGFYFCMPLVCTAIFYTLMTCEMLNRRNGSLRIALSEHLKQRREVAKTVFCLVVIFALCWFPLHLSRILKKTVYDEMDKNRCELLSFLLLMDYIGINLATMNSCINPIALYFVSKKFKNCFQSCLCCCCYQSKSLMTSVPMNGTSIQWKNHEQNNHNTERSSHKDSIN
The experiment is described as follows: (§1) Inhibition of endothelin (ET-A) binding to porcine heart membranes. Also on record: concentration or dose not given beside the values. As to conditions: Membrane, concentration not given here.

The target of a further experiment is T2, Endothelin-1 receptor (Sus scrofa, UniProt Q29010).
T2 sequence (Q29010 whole entry): T1 sequence (whole entry)
Described as §1. Also on record: species or system Membrane.

For experiment [2], the target named is T1, Endothelin-1 receptor (Sus scrofa). The description is as §1. As to conditions: Membrane, concentration not given here. Also on record: concentration or dose not given beside the values. The source holds these as a separate data set.
Experiment [3] shares this target. The experiment can be described thus: Antagonist activity against ET-A from porcine heart membranes. Type of experiment: functional, tissue-based. As to conditions: concentration not given here.

For the molecule `CC[C@H](C)[C@H](NC(=O)CNC(=O)CNC(=O)[C@H](CC(C)C)NC(=O)[C@H](NC(C)=O)C1c2ccccc2CCc2ccccc21)C(=O)N[C@@H](Cc1c[nH]c2ccccc12)C(=O)O`, in experiment [1], the inhibition – broadly, how much of the control response was suppressed – amounted to 41%. The 50% inhibitory concentration (IC50) – broadly, the midpoint of a concentration-inhibition curve – on Endothelin-1 receptor was determined as 0.15 µM.

Turning to `CC[C@H](C)[C@H](NC(=O)CNC(=O)[C@H](CCC(=O)O)NC(=O)[C@H](CC(C)C)NC(=O)[C@H](NC(C)=O)C1c2ccccc2CCc2ccccc21)C(=O)N[C@@H](Cc1c[nH]c2ccccc12)C(=O)O`, in experiment [1], the inhibition amounted to 88%. Moreover, the IC50 at Endothelin-1 receptor was found to be 0.048 µM.

`CC[C@H](C)[C@H](NC(=O)CNC(=O)[C@H](CC(=O)O)NC(=O)[C@H](CC(C)C)NC(=O)[C@H](NC(C)=O)C1c2ccccc2CCc2ccccc21)C(=O)N[C@@H](Cc1c[nH]c2ccccc12)C(=O)O`: the inhibition in experiment [2] was 41%; in experiment [1], 93%. Besides, the half-maximal inhibitory concentration (IC50) on Endothelin-1 receptor worked out at 0.018 µM.

In experiment [3], `CC[C@H](C)[C@H](NC(=O)[C@@H](NC(=O)[C@H](CC(=O)O)NC(=O)[C@H](CCC(N)=O)NC(=O)[C@H](NC(C)=O)C1c2ccccc2CCc2ccccc21)C1CCCCC1)C(=O)N[C@@H](Cc1c[nH]c2ccccc12)C(=O)O` gave an inhibition of 49%.

In experiment [2], `CC[C@H](C)[C@H](NC(=O)[C@H](CC(N)=O)NC(=O)[C@H](CC(=O)O)NC(=O)[C@H](CC(C)C)NC(=O)[C@H](NC(C)=O)C1c2ccccc2CCc2ccccc21)C(=O)N[C@@H](Cc1c[nH]c2ccccc12)C(=O)O` registered an inhibition of 41%. The 50% inhibitory concentration (IC50) on Endothelin-1 receptor amounted to 0.04 µM.

In the case of `CC[C@H](C)[C@H](NC(=O)CNC(=O)[C@H](CC(N)=O)NC(=O)[C@H](CC(C)C)NC(=O)[C@H](NC(C)=O)C1c2ccccc2CCc2ccccc21)C(=O)N[C@@H](Cc1c[nH]c2ccccc12)C(=O)O`, the inhibition in experiment [1] was found to be 74%. The half-inhibitory concentration (IC50) on Endothelin-1 receptor was 0.12 µM.

In experiment [2], `CC[C@H](C)[C@H](NC(=O)[C@@H](NC(=O)[C@H](CC(=O)O)NC(=O)[C@H](CC(C)C)NC(=O)[C@H](NC(C)=O)C1c2ccccc2CCc2ccccc21)C(C)C)C(=O)N[C@@H](Cc1c[nH]c2ccccc12)C(=O)O` had an inhibition of 70%. This molecule came in with a half-maximal inhibitory concentration (IC50) at Endothelin-1 receptor of 0.005 µM.

`CC[C@H](C)[C@H](NC(=O)[C@@H](NC(=O)[C@H](CC(=O)O)NC(=O)[C@H](CC(C)C)NC(=O)[C@H](NC(C)=O)C1c2ccccc2CCc2ccccc21)C1CCCCC1)C(=O)N[C@@H](Cc1c[nH]c2ccccc12)C(=O)O` showed an inhibition in experiment [3] of 47%.

In experiment [2], `CC[C@H](C)[C@H](NC(=O)[C@H](CCSC)NC(=O)[C@H](CC(=O)O)NC(=O)[C@H](CC(C)C)NC(=O)[C@H](NC(C)=O)C1c2ccccc2CCc2ccccc21)C(=O)N[C@@H](Cc1c[nH]c2ccccc12)C(=O)O` came in with an inhibition of 26%. Moreover, the concentration for half-maximal inhibition (IC50) at Endothelin-1 receptor turned out to be 0.04 µM.

In the case of `CC[C@H](C)[C@H](NC(=O)CNC(=O)[C@H](CCC(N)=O)NC(=O)[C@H](CC(C)C)NC(=O)[C@H](NC(C)=O)C1c2ccccc2CCc2ccccc21)C(=O)N[C@@H](Cc1c[nH]c2ccccc12)C(=O)O`, the inhibition in experiment [1] was found to be 66%. This molecule displayed a half-maximal inhibitory concentration (IC50) at Endothelin-1 receptor of 0.18 µM.
